In patent publication US20080233127A1, “IMIDAZOLOPYRIMIDINE ANALOGS AND THEIR USE AS PI3 KINASE AND MTOR INHIBITORS” (Wyeth, priority 2007, published 2008):

Legend:
PI3 Kinase = assay: PI3K fluorescence polarization assay; format: biochemical; settings: 25 μM ATP, diC8-PI(4,5)P2 substrate, 1 hour at 25° C.; read-out: PI3 Kinase Median IC50
Protocol: Nunc 384 well black polypropylene fluorescent plates are used for PI3K assays. Reactions are quenched by the addition of EDTA to a final concentration of 10 mM. Final reaction volumes are 10 μl. […] Reactions are allowed to proceed for one hour at 25° C. After 1 hour, GST-tagged GRP1 (general receptor for phosphoinositides) PH domain fusion protein is added to a final concentration of 100 nM, and BODIPY-TMRI(1,3,4,5)P4 (Echelon) is also added to a final concentration of 5 nM. Final sample volumes are 25 μl with a final DMSO concentration of 0.8%. Assay Plates are read on Perkin-Elmer Envision plate readers with appropriate filters for Tamra [BODIPY-TMRI(1,3,4,5)P4].

human TOR = biological target: T1, human TOR (Homo sapiens, UniProt P42345); assay: mTOR enzyme assay (DELFIA format, purified FLAG-TOR, His6-S6K substrate); format: biochemical; settings: 100 μM ATP, 1.25 μM His6-S6K, 2 hours at room temperature; read-out: TOR Kinase Median IC50
T1 construct: FLAG

| SMILES | IC50 (PI3 Kinase) [nM] | melting point [°C] | IC50 (human TOR) [nM] |
| --- | --- | --- | --- |
| Nc1ncc(-c2nc(N3CCOCC3)c3ncn(C4CCN(Cc5ccccc5)CC4)c3n2)cn1 [Compound 31, 5-[9-(1-benzylpiperidin-4-yl)-6-morpholin-4-yl-9H-purin-2-yl]pyrimidin-2-amine] | 43 | 238 to 240 | 220 |
| Nc1ccc(-c2nc(N3CCOCC3)c3ncn(C4CCN(Cc5ccccc5)CC4)c3n2)cn1 [Compound 32, 5-[9-(1-benzylpiperidin-4-yl)-6-morpholin-4-yl-9H-purin-2-yl]pyridin-2-amine] | 160 | 198 to 200 | 120 |
| Oc1cccc(-c2nc(N3CCOCC3)c3ncn(C4CCN(Cc5ccc(Cl)nc5)CC4)c3n2)c1 [Compound 78, 3-(9-{1-[(6-chloropyridin-3-yl)methyl]piperidin-4-yl}-6-morpholin-4-yl-9H-purin-2-yl)phenol] | 37 |  | 200 |
| COc1ccc(CN2CCC(n3cnc4c(N5CCOCC5)nc(-c5cccc(O)c5)nc43)CC2)cn1 [Compound 79, 3-(9-{1-[(6-methoxypyridin-3-yl)methyl]piperidin-4-yl}-6-morpholin-4-yl-9H-purin-2-yl)phenol] | 55 |  | 51 |
| Oc1cccc(-c2nc(N3CCOCC3)c3ncn(C4CCN(Cc5ccc(N6CCOCC6)nc5)CC4)c3n2)c1 [Compound 82, 3-(6-morpholin-4-yl-9-{1-[(6-morpholin-4-ylpyridin-3-yl)methyl]piperidin-4-yl}-9H-purin-2-yl)phenol] | 55 |  | 145 |
| CN(C)c1ccc(CN2CCC(n3cnc4c(N5CCOCC5)nc(-c5cccc(O)c5)nc43)CC2)c2ccccc12 [Compound 83, 3-[9-(1-{[4-(dimethylamino)-1-naphthyl]methyl}piperidin-4-yl)-6-morpholin-4-yl-9H-purin-2-yl]phenol] | 83 |  | 360 |
| Oc1cccc(-c2nc(N3CCOCC3)c3ncn(C4CCN(Cc5ccc(F)nc5)CC4)c3n2)c1 [Compound 84, 3-(9-{1-[(6-fluoropyridin-3-yl)methyl]piperidin-4-yl}-6-morpholin-4-yl-9H-purin-2-yl)phenol] | 70 |  | 310 |
| Oc1cccc(-c2nc(N3CCOCC3)c3ncn(CCN4CCCCC4)c3n2)c1 [Compound 85, 3-[6-morpholin-4-yl-9-(2-piperidin-1-ylethyl)-9H-purin-2-yl]phenol] | 163 |  | 9800 |
| OCc1cccc(-c2nc(N3CCOCC3)c3ncn(CCN4CCCCC4)c3n2)c1 [Compound 86, {3-[6-morpholin-4-yl-9-(2-piperidin-1-ylethyl)-9H-purin-2-yl]phenyl}methanol] | 91 |  | 13000 |
| Oc1cncc(-c2nc(N3CCOCC3)c3ncn(C4CCN(Cc5ccccc5)CC4)c3n2)c1 [Compound 87, 5-[9-(1-benzylpiperidin-4-yl)-6-morpholin-4-yl-9H-purin-2-yl]pyridin-3-ol] | 87 |  | 550 |
| Oc1cncc(-c2nc(N3CCOCC3)c3ncn(C4CCN(Cc5ccc(F)nc5)CC4)c3n2)c1 [Compound 88, 5-(9-{1-[(6-fluoropyridin-3-yl)methyl]piperidin-4-yl}-6-morpholin-4-yl-9H-purin-2-yl)pyridin-3-ol] | 85 |  | 500 |
| CNC(=O)Nc1ccc(-c2nc(N3CCOCC3)c3ncn(C4CCN(Cc5cccnc5)CC4)c3n2)cc1 [Compound 89, 1-methyl-3-(4-(6-morpholino-9-(1-(pyridin-3-ylmethyl)piperidin-4-yl)-9H-purin-2-yl)phenyl)urea] | 340 |  | 9.7 |
| CCNC(=O)Nc1ccc(-c2nc(N3CCOCC3)c3ncn(C4CCN(Cc5cccnc5)CC4)c3n2)cc1 [Compound 90, 1-ethyl-3-(4-(6-morpholino-9-(1-(pyridin-3-ylmethyl)piperidin-4-yl)-9H-purin-2-yl)phenyl)urea] | 1350 |  | 12 |
| C=CC(=O)n1cnc2c(N3CCOCC3)nc(-c3cccc(O)c3)nc21 [Compound 91, 1-(2-(3-hydroxyphenyl)-6-morpholino-9H-purin-9-yl)prop-2-en-1-one] | 43 |  | 73 |
